Calls of active or inactive are those of the source. No cut-off for these calls is given here.

From ChEMBL document CHEMBL1158456, “Synergistic effect of zanamivir-porphyrin conjugates on inhibition of neuraminidase and inactivation of influenza virus” (J Med Chem, 2009) come the findings set out here.

For experiment [1], the system named is Influenza A virus. The experiment in a line: Antiviral activity against influenza A virus A/WSN/1933 H1N1 infected in MDCK cells after 3 days by plaque reduction assay. It counts as functional, organism-based. To be noted: 72 h.
The test system of experiment [2] is Influenza A virus. Nature of the experiment: Antiviral activity against influenza A virus A/Vietnam/1194/2004 H5N1 infected in MDCK cells after 3 days by plaque reduction assay. It counts as functional, organism-based. To be noted: 72 h. (In a plaque reduction assay, fewer plaques than in the control indicate reduced infectivity or spread.)
Experiment [3] has as its system Influenza A virus. Nature of the experiment: Antiviral activity against influenza A virus A/WSN/1933 H1N1 infected in MDCK cells assessed as reduction of infectious viral titer at 100 nM incubated for 1 hr under laminar flow hood light before infection measured after 3 days. It counts as functional, organism-based.
Experiment [4] relates to Influenza A virus. Nature of the experiment: Antiviral activity against influenza A virus A/WSN/1933 H1N1 infected in MDCK cells assessed as reduction of infectious viral titer at 500 nM incubated for 1 hr under laminar flow hood light before infection measured after 3 days. It counts as functional, organism-based.
Experiment [5] concerns the target T1, Neuraminidase (Influenza A virus, UniProt B4URF0). Nature of the experiment: Inhibition of influenza A virus A/WSN/1933 H1N1 neuraminidase using NA-STAR substrate after 15 mins incubation at room temperature by fluorescent assay.
Experiment [6] deals with T1, Neuraminidase. The experiment in a line: Inhibition of influenza A virus A/Vietnam/1194/2004 H5N1 neuraminidase using NA-STAR substrate after 15 mins incubation at room temperature by fluorescent assay.
The target of experiment [7] is Neuraminidase (Influenza A virus) (UniProt B4URF0). Nature of the experiment: Inhibition of influenza A virus A/WSN/1933 H1N1 neuraminidase at 10 nM using NA-STAR substrate after 15 mins incubation at room temperature by fluorescent assay relative to control.
The target is the same in experiment [8]. Nature of the experiment: Inhibition of influenza A virus A/WSN/1933 H1N1 neuraminidase at 40 nM using NA-STAR substrate after 15 mins incubation at room temperature by fluorescent assay relative to control.
Experiment [9] has the same target. Nature of the experiment: Inhibition of influenza A virus A/Vietnam/1194/2004 H5N1 neuraminidase at 10 nM using NA-STAR substrate after 15 mins incubation at room temperature by fluorescent assay relative to control.
The target is the same in experiment [10]. The experiment in a line: Inhibition of influenza A virus A/Vietnam/1194/2004 H5N1 neuraminidase at 40 nM using NA-STAR substrate after 15 mins incubation at room temperature by fluorescent assay relative to control.
Experiment [11] concerns Influenza A virus. Nature of the experiment: Antiviral activity against influenza A virus A/WSN/1933 H1N1 infected in MDCK cells assessed as protection against virus-induced cytopathic effect after 48 hrs. It counts as functional, organism-based.
In experiment [12] the test system is Influenza A virus. Nature of the experiment: Antiviral activity against influenza A virus A/Vietnam/1194/2004 H5N1 infected in MDCK cells assessed as protection against virus-induced cytopathic effect after 48 hrs. It counts as functional, organism-based. In general terms: Damage to the host cells serves as the signal in cytopathic effect assays.
Experiment [13] deals with Influenza A virus. Nature of the experiment: Ratio of EC50 for drug to EC50 for zanamivir against influenza A virus A/Vietnam/1194/2004 H5N1 by plaque reduction assay. It counts as functional.
Experiment [14] concerns Influenza A virus. Nature of the experiment: Inhibition of influenza A virus A/WSN/1933 H1N1-induced hemagglutinination of chicken RBC. It counts as functional, organism-based.
Experiment [15] concerns Influenza A virus (A/Vietnam/1194/2004(H5N1)). The experiment in a line: Binding affinity to influenza A virus A/Vietnam/1194/2004 H5N1 hemagglutininin to alpha-2,3-sialic acid galactosyl oligomers.
Experiment [16] relates to Influenza A virus. The experiment in a line: Antiviral activity against influenza A virus A/WSN/1933 H1N1 infected in MDCK cells assessed as reduction of infectious viral titer at 0.4 to 10 uM incubated for 1 hr measured after 3 days relative to control. It counts as functional. The arrangement: scale not given: the % may be the effect or the level left.
Experiment [17] deals with Influenza A virus. Nature of the experiment: Antiviral activity against influenza A virus A/WSN/1933 H1N1 infected in MDCK cells assessed as reduction of infectious viral titer incubated for 1 hr measured after 3 days. It counts as functional, organism-based.
Experiment [18] concerns Influenza A virus. The experiment in a line: Antiviral activity against influenza A virus A/WSN/1933 H1N1 infected in MDCK cells assessed as reduction of infectious viral titer at 40 nM incubated for 1 hr measured after 3 days relative to control. It counts as functional. The arrangement: scale not given: the % may be the effect or the level left.
For experiment [19], the system named is Influenza A virus. The experiment in a line: Antiviral activity against influenza A virus A/WSN/1933 H1N1 infected in MDCK cells assessed as reduction of infectious viral titer at 200 nM incubated for 1 hr measured after 3 days. Also on record: scale not given: the % may be the effect or the level left. It counts as functional.
Experiment [20] concerns Influenza A virus. The experiment in a line: Antiviral activity against influenza A virus A/WSN/1933 H1N1 infected in MDCK cells assessed as reduction of infectious viral titer at 100 nM incubated for 1 hr under laminar flow hood light before infection measured after 3 days in presence of 10 fold excess zanamivir. It counts as functional, organism-based.
The subject of experiment [21] is Influenza A virus. Nature of the experiment: Antiviral activity against influenza A virus A/WSN/1933 H1N1 infected in MDCK cells assessed as reduction of infectious viral titer at 500 nM incubated for 1 hr under laminar flow hood light before infection measured after 3 days in presence of 10 fold excess zanamivir. It counts as functional, organism-based.

Sequence of Neuraminidase (Influenza A virus) (B4URF0 as listed by the source): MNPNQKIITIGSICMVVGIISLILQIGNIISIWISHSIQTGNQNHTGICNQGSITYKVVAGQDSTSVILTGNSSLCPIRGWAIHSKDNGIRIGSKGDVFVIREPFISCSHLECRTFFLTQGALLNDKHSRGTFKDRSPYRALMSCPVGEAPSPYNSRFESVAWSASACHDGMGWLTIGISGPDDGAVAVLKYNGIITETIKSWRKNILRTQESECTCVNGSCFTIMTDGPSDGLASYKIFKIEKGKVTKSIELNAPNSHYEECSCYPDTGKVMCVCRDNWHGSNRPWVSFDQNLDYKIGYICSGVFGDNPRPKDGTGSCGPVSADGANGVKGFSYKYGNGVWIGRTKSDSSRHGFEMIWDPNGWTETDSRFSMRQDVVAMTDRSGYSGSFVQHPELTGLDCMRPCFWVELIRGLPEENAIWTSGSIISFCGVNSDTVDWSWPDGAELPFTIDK
T1 sequence (B4URF0 whole entry): as the sequence (B4URF0 as listed by the source) above

A word on the EC50: it is the concentration needed to bring the measured effect to its halfway point. For `CC(=O)N[C@H]1[C@H]([C@H](O)[C@H](O)CO)OC(C(=O)O)=C[C@@H]1NC(=N)N` [ZANAMIVIR], the EC50 with Influenza A virus [1] was found to be 11 nM; in the experiment on Influenza A virus [2] it was 613 nM. Moreover, the outcome in the experiment with Influenza A virus [3] and in the experiment on Influenza A virus [4] was inactive.

For orientation: IC50 means the concentration that inhibits the measured activity by half. Regarding `CC(=O)N[C@H]1[C@H]([C@H](OC(=O)NCc2cn(CCOCCOCCOCCOCCNC(=O)COc3ccc(-c4c5nc(c(-c6ccc(OCC(=O)NCCOCCOCCOCCOCCn7cc(CNC(=O)O[C@@H]([C@@H]8OC(C(=O)O)=C[C@H](N=C(N)N)[C@H]8NC(C)=O)[C@H](O)CO)nn7)cc6)c6ccc([nH]6)c(-c6ccc(OCC(=O)NCCOCCOCCOCCOCCn7cc(CNC(=O)O[C@@H]([C@@H]8OC(C(=O)O)=C[C@H](N=C(N)N)[C@H]8NC(C)=O)[C@@H](O)CO)nn7)cc6)c6nc(c(-c7ccc(OCC(=O)NCCOCCOCCOCCOCCn8cc(CNC(=O)O[C@@H]([C@@H]9OC(C(=O)O)=C[C@H](N=C(N)N)[C@H]9NC(C)=O)[C@H](O)CO)nn8)cc7)c7ccc4[nH]7)C=C6)C=C5)cc3)nn2)[C@H](O)CO)OC(C(=O)O)=C[C@@H]1N=C(N)N`, the IC50 worked out at 3.7 nM at Neuraminidase [5] and 7.6 nM on Neuraminidase [6].

A word on the inhibition: it is the share of the control response that was lost under treatment. Consider `CC(=O)N[C@H]1[C@H]([C@H](OC(=O)NCc2cn(CCOCOc3ccc(-c4c5nc(c(-c6ccc(OCOCCn7cc(CNC(=O)O[C@@H]([C@@H]8OC(C(=O)O)=C[C@H](NC(=N)N)[C@H]8NC(C)=O)[C@H](O)CO)nn7)cc6)c6ccc([nH]6)c(-c6ccc(OCOCCn7cc(CNC(=O)O[C@@H]([C@@H]8OC(C(=O)O)=C[C@H](NC(=N)N)[C@H]8NC(C)=O)[C@H](O)CO)nn7)cc6)c6nc(c(-c7ccc(OCOCCn8cc(CNC(=O)O[C@@H]([C@@H]9OC(C(=O)O)=C[C@H](NC(=N)N)[C@H]9NC(C)=O)[C@H](O)CO)nn8)cc7)c7ccc4[nH]7)C=C6)C=C5)cc3)nn2)[C@H](O)CO)OC(C(=O)O)=C[C@@H]1NC(=N)N`, for which the inhibition was determined as 24% in [7], 51% in [8], 24% in experiment [9] and 51% in experiment [10]. The result with Influenza A virus [11] and in the experiment with Influenza A virus [12] was Active. For the same compound, the EC50 in the experiment on Influenza A virus [1] worked out at 2 nM; in the experiment on Influenza A virus [2], 11 nM. For the same compound, in the experiment on Influenza A virus [13], the “Ratio EC50” value amounted to 55. In addition, the outcome (in the experiment on Influenza A virus [14]; in experiment [15]) was inactive.

On to `CC(=O)N[C@H]1[C@H]([C@H](OC(=O)NCc2cn(CCOCCOCCOCCNC(=O)COc3ccc(-c4c5nc(c(-c6ccc(OCC(=O)NCCOCCOCCOCCn7cc(CNC(=O)O[C@@H]([C@@H]8OC(C(=O)O)=C[C@H](N=C(N)N)[C@H]8NC(C)=O)[C@H](O)CO)nn7)cc6)c6ccc([nH]6)c(-c6ccc(OCC(=O)NCCOCCOCCOCCn7cc(CNC(=O)O[C@@H]([C@@H]8OC(C(=O)O)=C[C@H](N=C(N)N)[C@H]8NC(C)=O)[C@H](O)CO)nn7)cc6)c6nc(c(-c7ccc(OCC(=O)NCCOCCOCCOCCn8cc(CNC(=O)O[C@@H]([C@@H]9OC(C(=O)O)=C[C@H](N=C(N)N)[C@H]9NC(C)=O)[C@H](O)CO)nn8)cc7)c7ccc4[nH]7)C=C6)C=C5)cc3)nn2)[C@H](O)CO)OC(C(=O)O)=C[C@@H]1N=C(N)N`, for which the IC50 on Neuraminidase [5] was found to be 8.5 nM; on Neuraminidase [6], 16 nM.

Regarding `Oc1ccc(-c2c3nc(c(-c4ccc(O)cc4)c4ccc([nH]4)c(-c4ccc(O)cc4)c4nc(c(-c5ccc(O)cc5)c5ccc2[nH]5)C=C4)C=C3)cc1`, the outcome in the experiment on Influenza A virus [3] and in the experiment with Influenza A virus [4] was inactive.

For `CC(=O)N[C@H]1[C@H]([C@H](OC(=O)NCc2cn(CCOCOc3ccc(-c4c5nc(c(-c6ccc(OCOCCn7cc(CNC(=O)O[C@@H]([C@@H]8OC(C(=O)O)=C[C@H](N=C(N)N)[C@H]8NC(C)=O)[C@H](O)CO)nn7)cc6)c6ccc([nH]6)c(-c6ccc(OCOCCn7cc(CNC(=O)O[C@@H]([C@@H]8OC(C(=O)O)=C[C@H](N=C(N)N)[C@H]8NC(C)=O)[C@H](O)CO)nn7)cc6)c6nc(c(-c7ccc(OCOCCn8cc(CNC(=O)O[C@@H]([C@@H]9OC(C(=O)O)=C[C@H](N=C(N)N)[C@H]9NC(C)=O)[C@H](O)CO)nn8)cc7)c7ccc4[nH]7)C=C6)C=C5)cc3)nn2)[C@H](O)CO)OC(C(=O)O)=C[C@@H]1N=C(N)N`, the concentration for half-maximal inhibition (IC50) against Neuraminidase [5] was determined as 11 nM.

Consider `CC(=O)N[C@H]1[C@H]([C@H](OC(=O)NCc2cn(CCOCCOCCOCCOCCNC(=O)COc3ccc(-c4c5nc(c(-c6ccc(OCC(=O)NCCOCCOCCOCCOCCn7cc(CNC(=O)O[C@@H]([C@@H]8OC(C(=O)O)=C[C@H](NC(=N)N)[C@H]8NC(C)=O)[C@H](O)CO)nn7)cc6)c6ccc([nH]6)c(-c6ccc(OCC(=O)NCCOCCOCCOCCOCCn7cc(CNC(=O)O[C@@H]([C@@H]8OC(C(=O)O)=C[C@H](NC(=N)N)[C@H]8NC(C)=O)[C@@H](O)CO)nn7)cc6)c6nc(c(-c7ccc(OCC(=O)NCCOCCOCCOCCOCCn8cc(CNC(=O)O[C@@H]([C@@H]9OC(C(=O)O)=C[C@H](NC(=N)N)[C@H]9NC(C)=O)[C@H](O)CO)nn8)cc7)c7ccc4[nH]7)C=C6)C=C5)cc3)nn2)[C@H](O)CO)OC(C(=O)O)=C[C@@H]1NC(=N)N`, for which the Activity was 60% in the experiment on Influenza A virus [16], “Dose-dependent effect” with Influenza A virus [17], <20% in the experiment on Influenza A virus [18] and >95% in the experiment with Influenza A virus [19]. Also, the outcome with Influenza A virus [11], in the experiment on Influenza A virus [12], in the experiment with Influenza A virus [3] and in the experiment on Influenza A virus [4] was Active. The EC50 in the experiment with Influenza A virus [1] was found to be 0.1 nM. For the same compound, the result (with Influenza A virus [14]; in experiment [15]; with Influenza A virus [20]; with Influenza A virus [21]) was inactive.

In the case of `CC(=O)N[C@H]1[C@H]([C@H](OC(=O)NCc2cn(CCOCCOCCOCCNC(=O)COc3ccc(-c4c5nc(c(-c6ccc(OCC(=O)NCCOCCOCCOCCn7cc(CNC(=O)O[C@@H]([C@@H]8OC(C(=O)O)=C[C@H](NC(=N)N)[C@H]8NC(C)=O)[C@H](O)CO)nn7)cc6)c6ccc([nH]6)c(-c6ccc(OCC(=O)NCCOCCOCCOCCn7cc(CNC(=O)O[C@@H]([C@@H]8OC(C(=O)O)=C[C@H](NC(=N)N)[C@H]8NC(C)=O)[C@H](O)CO)nn7)cc6)c6nc(c(-c7ccc(OCC(=O)NCCOCCOCCOCCn8cc(CNC(=O)O[C@@H]([C@@H]9OC(C(=O)O)=C[C@H](NC(=N)N)[C@H]9NC(C)=O)[C@H](O)CO)nn8)cc7)c7ccc4[nH]7)C=C6)C=C5)cc3)nn2)[C@H](O)CO)OC(C(=O)O)=C[C@@H]1NC(=N)N`, the outcome in the experiment with Influenza A virus [11] and in the experiment with Influenza A virus [12] was Active. The same compound displayed a concentration for a half-maximal effect (EC50) with Influenza A virus [1] of 0.5 nM. Moreover, the result (in the experiment on Influenza A virus [14]; in experiment [15]) was inactive.
